# Source: US20240343733A1, “COMPOUNDS FOR TARGETING DEGRADATION OF IRAK4 PROTEINS” (BIOGEN MA INC., priority 2021, published 2024)
# Target: T1, IRAK4 (Homo sapiens, UniProt Q9NWZ3)
# T1 construct: 293Tcells expressing HiBiT-tagged IRAK4 were then added into 384-well plates
# T1 sequence (Q9NWZ3 1-460): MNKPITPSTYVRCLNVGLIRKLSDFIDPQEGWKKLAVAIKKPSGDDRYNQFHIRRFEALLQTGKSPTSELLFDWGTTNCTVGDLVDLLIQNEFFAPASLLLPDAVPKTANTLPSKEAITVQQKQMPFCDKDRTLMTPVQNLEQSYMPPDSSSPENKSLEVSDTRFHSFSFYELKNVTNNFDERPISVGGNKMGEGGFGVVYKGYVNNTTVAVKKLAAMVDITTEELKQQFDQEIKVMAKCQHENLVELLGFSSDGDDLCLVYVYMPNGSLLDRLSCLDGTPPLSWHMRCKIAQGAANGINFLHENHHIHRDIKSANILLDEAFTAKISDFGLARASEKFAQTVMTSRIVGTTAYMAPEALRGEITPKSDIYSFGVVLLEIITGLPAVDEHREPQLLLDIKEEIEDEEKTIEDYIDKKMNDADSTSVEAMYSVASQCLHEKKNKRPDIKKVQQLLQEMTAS
# Experiment: IRAK4 Degradation Assay, HiBiT Method
# Assay type: cell-based
# Settings: 293T cells expressing HiBiT-tagged IRAK4, 6 hours
# In short: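 Luminescent read-out with Nano-Glo HiBiT lytic reagent after 6 h compound exposure at 37 °C. Cells were HiBiT-IRAK4 knock-in 293T (C-terminal tag), 10,000 per well. Compounds ran as 11-point half-log dilutions from […] highest dose, duplicate wells; DMSO served as negative control.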
row,SMILES,DC50
1,"CC(C)Oc1cc2nc(C3CCN(C(=O)CN4CCC(c5ccc(C6(F)CCC(=O)NC6=O)cc5)CC4)CC3)cn2cc1C(=O)Nc1cnn2cccnc12 (stereo not drawn) [Example 89, 2-[1-[2-[4-[4-(3-fluoro-2,6-dioxo-3-piperidyl)phenyl]-1-piperidyl]acetyl]-4-piperidyl]-7-isopropoxy-N-pyrazolo[1,5-a]pyrimidin-3-yl-imidazo[1,2-a]pyridine-6-carboxamide]",< 10 nM
2,"CC(C)Oc1cc2nc(C3CCN(C(=O)CC4CC5(C4)CN(c4ccc(C6CCC(=O)NC6=O)cc4)C5)CC3)cn2cc1C(=O)Nc1cccc(C(F)F)n1 (stereo not drawn) [Example 90, N-[6-(difluoromethyl)-2-pyridyl]-2-[1-[2-[2-[4-(2,6-dioxo-3-piperidyl)phenyl]-2-azaspiro[3.3]heptan-6-yl]acetyl]-4-piperidyl]-7-isopropoxy-imidazo[1,2-a]pyridine-6-carboxamide]",10 to 100 nM
3,"CC(C)Oc1cc2nc(C3CCN(C(=O)CC4CCN(c5ccc6c([C@H]7CCC(=O)NC7=O)nn(C)c6c5)CC4)CC3)cn2cc1C(=O)Nc1cccc(C(F)F)n1 [Example 91, (R)—N-(6-(difluoromethyl)pyridin-2-yl)-2-(1-(2-(1-(3-(2,6-dioxopiperidin-3-yl)-1-methyl-1H-indazol-6-yl)piperidin-4-yl)acetyl)piperidin-4-yl)-7-isopropoxyimidazo[1,2-a]pyridine-6-carboxamide]",10 to 100 nM
4,"CC(C)Oc1cc2nc(C3CCN(C(=O)CC4CCN(c5ccc6c([C@@H]7CCC(=O)NC7=O)nn(C)c6c5)CC4)CC3)cn2cc1C(=O)Nc1cccc(C(F)F)n1 [Example 92, (S)—N-(6-(difluoromethyl)pyridin-2-yl)-2-(1-(2-(1-(3-(2,6-dioxopiperidin-3-yl)-1-methyl-1H-indazol-6-yl)piperidin-4-yl)acetyl)piperidin-4-yl)-7-isopropoxyimidazo[1,2-a]pyridine-6-carboxamide]",10 to 100 nM
5,"CC(C)Oc1cc2nc(C3CCN(CC(=O)N4CCC(c5ccc(NC6CCC(=O)NC6=O)cc5)CC4)CC3)cn2cc1C(=O)Nc1ccccc1 (stereo not drawn) [Example 93, 2-[1-[2-[4-[4-[(2,6-dioxo-3-piperidyl)amino]phenyl]-1-piperidyl]-2-oxo-ethyl]-4-piperidyl]-7-isopropoxy-N-phenyl-imidazo[1,2-a]pyridine-6-carboxamide]",100 to 500 nM
6,"CC(C)Oc1cc2nc(C3CCN(CC(=O)N4CCC(c5ccc(NC6CCC(=O)NC6=O)cc5)CC4)CC3)cn2cc1C(=O)Nc1ccc(F)cc1F (stereo not drawn) [Example 94, N-(2,4-difluorophenyl)-2-[1-[2-[4-[4-[(2,6-dioxo-3-piperidyl)amino]phenyl]-1-piperidyl]-2-oxo-ethyl]-4-piperidyl]-7-isopropoxy-imidazo[1,2-a]pyridine-6-carboxamide]",100 to 500 nM
7,"CC(C)Oc1cc2nc(C3(C)CCN(CC(=O)N4CCC(c5ccc(NC6CCC(=O)NC6=O)cc5)CC4)CC3)cn2cc1C(=O)Nc1cccc(C(F)(F)F)n1 (stereo not drawn) [Example 95, 2-[1-[2-[4-[4-[(2,6-dioxo-3-piperidyl)amino]phenyl]-1-piperidyl]-2-oxo-ethyl]-4-methyl-4-piperidyl]-7-isopropoxy-N-[6-(trifluoromethyl)-2-pyridyl]imidazo[1,2-a]pyridine-6-carboxamide]",100 to 500 nM
8,"CC(C)Oc1cc2nc(C3CCN(CC(=O)N4CCC(c5cc(F)c(C6CCC(=O)NC6=O)cc5F)CC4)CC3)cn2cc1C(=O)Nc1cccc(C(F)F)n1 (stereo not drawn) [Example 97, N-[6-(difluoromethyl)-2-pyridyl]-2-[1-[2-[4-[4-(2,6-dioxo-3-piperidyl)-2,5-difluoro-phenyl]-1-piperidyl]-2-oxo-ethyl]-4-piperidyl]-7-isopropoxy-imidazo[1,2-a]pyridine-6-carboxamide]",10 to 100 nM
9,"CC(C)Oc1cc2nc(C3CCN(CC(=O)N4CCC(c5ccc(C6CCC(=O)NC6=O)cc5)CC4)CC3)cn2cc1C(=O)Nc1cccc(C(F)F)n1 (stereo not drawn) [Example 99, N-[6-(difluoromethyl)-2-pyridyl]-2-[1-[2-[4-[4-(2,6-dioxo-3-piperidyl)phenyl]-1-piperidyl]-2-oxo-ethyl]-4-piperidyl]-7-isopropoxy-imidazo[1,2-a]pyridine-6-carboxamide]",10 to 100 nM
